Laboratory results: US11761894B2, “Silicon-rhodamine fluorescent probe containing hydrophobic group and use thereof” (AJOU UNIVERSITY INDUSTRY—ACADEMIC COOPERATION FOUNDATION, priority 2019, dated 2023)
Entries after “also recorded” stand apart in the source; their conditions may differ.

Legend:
[1] = system: HeLa, Hep3B, HepG2 and Raw 264.7 cells; experiment: Cytotoxicity test (mitochondrial respiration viability assay, CellTiter 96 Aqueous One); format: cell-based, human; mouse; conditions: up to the 24 hr time point, moderate dose (less than 1 μM)
Protocol: HeLa, Hep3B, HepG2 and Raw 264.7 cells were incubated with SiR-Mito 8, concentration range from 0.25 μM to 10 μM, for 1, 4, 12, and 24 h. Viability of the cells was normalized by DMSO control.
In order to use SiR-Mito 8 as a potential NIR fluorescent tracer for mitochondrial staining, cytotoxicity of the probes was evaluated. HeLa, Hep3B, HepG2 and Raw 264.7 cells were incubated with SiR-Mito 8 at various concentrations (from 0.25 to 10.0 μM) and cytotoxicity was measured by a mitochondrial respiration viability assay.
Specifically, HeLa human cervical cancer cells, Hep3B and HepG2 human hepatocellular carcinoma cells, and Raw264.7 mouse macrophage cells were seeded into 96-well cell culture plates per well and allowed to adhere to the plates overnight. The cells were incubated with cell culture media containing each concentration of SiR-Mito 8 (0.25 μM to 10 μM) for 1, 4, 12 or 24 h. After incubation, CellTiter 96® Aqueous One Solution Cell Proliferation Assay (Promega) was added into each well. After 2 h, 490 nm absorption was measured with Cytation 3 microplate reader (BioTek). Cytotoxicity of SiR-Mito 8 was tested in triplicate in a single experiment, with each experiment being repeated at least three times.

[2] = system: Hep3B cells; experiment: Co-staining with Hoechst and Lysotracker Red in Hep3B cells; format: cell-based, human; conditions: 1 μM, 1 h
Protocol: Liver cancer Hep3B cells were incubated with Hoechst (0.01 μg/ml), Lysotracker red (1 μM), and SiR-Mito 8 (1 μM) for 1 h. After washing 3 times with fresh media, fluorescence live cell images were acquired with a LEICA DMi8 microscope (Left). […] Scale bar: 50 μm.
To verify the mitochondrial specificity of the SiR-Mito 8 probe, Hep3B human cancer cells were co-stained with a nuclear and a lysosomal tracer, in addition to SiR-Mito 8.
To this end, 6.0×10^4 human HCC cell line Hep3B cells were seeded on confocal dish and incubated for 2 days. After 2 days, Hep3B cells were incubated with Hoechst, 1 μM Lysotracker Red, and 1 μM SiR-Mito 8 contained media for 1 h. After the incubation, Hep3B cells were washed with cell culture media for three times and observed with inverted fluorescence microscope (DMi8, LEICA).

[3] = Photophysical properties (excitation/emission wavelength, absolute quantum yield, fluorescence intensity in PBS); format: physicochemical
Protocol: All reactions were carried out under an atmosphere of nitrogen or argon in air-dried glassware with magnetic stirring. Air- and/or moisture-sensitive liquids were transferred with syringe. Organic solutions were concentrated by rotary evaporation at 25-60° C. at 15-30 torr. All solvents and common materials were purchased from suppliers and used without further purification. Column chromatography was carried out as “Flash Chromatography” using Biotage MPLC machine. ^1H NMR and ^13C NMR data were recorded on an JEOL ECZ-600R Magnetic Resonance System (600 MHz) in Ajou University. Recorded shifts are reported in parts per million (6): Chemical shift, multiplicity (s=singlet, d=doublet, t=triplet, q=quartet, m=multiplet, br=broad), coupling constant (J, Hz) and integration. Low resolution mass spectrometry (LRMS) was obtained by LC/MS system, Finnigan MSQplus Surveyer (Thermo Scientific) or 6120 Quadrupole LC/MS (Agilent Technologies). The progress of reaction was monitored using thin layer chromatography (TLC) (silica gel 60, F254 0.25 mm), and components were visualized by observation under UV light (254 and 365 nm) or by treating the TLC plates with Phosphonolybdic acid (PMA), KMnO4, or ninhydrin followed by heating. Cell culture reagents including fatal bovine serum, culture media, and antibiotic-antimycotic solution were purchased from GIBCO. MitoTracker Green, and Hoechst were purchased from Invitrogen. The culture dish and glassbottom dish were purchased from CORNING, and SPL. All spectra experiments were performed in a 1×1 cm quartz cuvette. Fluorescence emission spectra were recorded on JASCO FP-8200 spectrofluorometer, and UV absorption spectra were recorded on JASCO V-670 spectrophotometer. Absolute quantum yield was measured by QE-2000 (Otsuka Electronics).

Q: Which results are given for “N-(10-(5-((cyclooctylmethyl) carbamoyl)-2-methylphenyl)-7-(dimethylamino)-5,5-dimethyldibenzo[b,e]silin-3(5H)-ylidene)-N-methylmethanaminium [SiR-Mito 8]”?
A: Cytotoxicity [1]: no acute cytotoxicity; Mitochondrial specificity versus lysosome (Lysotracker Red co-staining) [2]: high mitochondrial specificity; also recorded: did not localize to other organelle such as lysosome; Em (emission wavelength) [3]: 668 nm; Ex (excitation wavelength) [3]: 651 nm; Φ (quantum yield) ([3]; absolute quantum yield): 0.33
